Experimental data reported in publication PMC12365235, “Molecular mechanisms of thiazide-like diuretics-mediated inhibition of the human Na-Cl cotransporter” (Nature Communications, 2025).
pIC50: −log10 of the molar value.

Molecular target: T1, hNCC(N227A) (Homo sapiens, UniProt P55017, N227A)
T1 construct: expressed in transfected cells
T1 sequence (P55017 1-1021 N227A): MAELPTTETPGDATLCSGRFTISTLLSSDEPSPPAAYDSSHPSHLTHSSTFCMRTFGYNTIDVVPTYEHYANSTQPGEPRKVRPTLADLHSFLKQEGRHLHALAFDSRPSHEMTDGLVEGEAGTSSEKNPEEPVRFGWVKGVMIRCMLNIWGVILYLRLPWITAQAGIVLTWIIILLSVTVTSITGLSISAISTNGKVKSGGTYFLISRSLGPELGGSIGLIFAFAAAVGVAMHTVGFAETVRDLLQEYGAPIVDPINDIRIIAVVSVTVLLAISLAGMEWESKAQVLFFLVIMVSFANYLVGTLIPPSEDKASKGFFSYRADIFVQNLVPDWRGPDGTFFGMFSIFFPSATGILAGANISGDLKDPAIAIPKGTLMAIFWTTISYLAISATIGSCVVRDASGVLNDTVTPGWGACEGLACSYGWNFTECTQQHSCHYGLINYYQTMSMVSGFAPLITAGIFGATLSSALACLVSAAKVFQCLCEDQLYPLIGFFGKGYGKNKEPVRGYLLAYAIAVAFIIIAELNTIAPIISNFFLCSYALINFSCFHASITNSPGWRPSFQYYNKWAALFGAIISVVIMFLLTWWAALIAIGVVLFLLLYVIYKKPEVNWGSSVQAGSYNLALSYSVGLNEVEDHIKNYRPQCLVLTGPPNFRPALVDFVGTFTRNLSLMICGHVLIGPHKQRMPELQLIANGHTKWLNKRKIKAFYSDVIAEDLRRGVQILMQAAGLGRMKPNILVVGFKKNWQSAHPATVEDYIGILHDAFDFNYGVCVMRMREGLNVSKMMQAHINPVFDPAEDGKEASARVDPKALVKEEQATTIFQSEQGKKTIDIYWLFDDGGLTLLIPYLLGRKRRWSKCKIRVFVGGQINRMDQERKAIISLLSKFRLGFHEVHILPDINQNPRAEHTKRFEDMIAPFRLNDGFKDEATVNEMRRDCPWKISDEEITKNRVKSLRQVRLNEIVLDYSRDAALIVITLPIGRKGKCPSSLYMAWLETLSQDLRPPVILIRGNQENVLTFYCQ
Test: 125I- uptake assay, hNCC(N227A) variant
Type: cell-based
Details: for increase in IC50 relative to hNCC(WT) / pIC50: N227A substitution; for pIC50: iodide uptake
Method: HEK293S cell lines, cultured in 293 Freestyle medium (Life Technologies; plus 10% fetal bovine serum), stably expressing hNCC and its variants were generated following published protocols. Cells were transfected using Lipofectamine 3000 (Invitrogen) with a pSBbi-RP-based plasmid containing hNCC or its variants and the SB100X vector. Puromycin (2 μg/mL; Gemini Bio-Products) was used for selection of stable cell lines.
To prepare for the uptake experiment, cells were plated at 0.5 × 10^6 cells/well in 24-well plates one day in advance. To activate NCC, cells were treated with a chloride-free hypotonic solution composed of 67.5 mM sodium-, 2.5 mM potassium-, 0.25 mM magnesium-, and 0.25 mM calcium-gluconate, as well as 7.5 mM HEPES pH 7.4 (buffered using Tris) at 37 °C for 10 min[72]. After the activation step, the experiments were carried out at room temperature. Ten minutes before the start of ^125I^− uptake, 70 μM Bumetanide (Thermo Scientific Chemicals) and 100 μM 4,4′-diisothiocyanatostilbene-2,2′-disulfonic acid (DIDS; Sigma) were added to suppress background iodide uptake activity. Indicated thiazide diuretics were also added to the indicated concentrations 10 min before the start of ^125I^− uptake. The original buffer was switched to an uptake buffer composed of 135 mM Na-gluconate, 5 mM K-gluconate, 1 mM Mg-gluconate, 1 mM Ca-gluconate, 70 μM bumetanide, 100 μM DIDS, 1 mM NaI, 0.25 μCi/ml Na^125I (American Radiolabeled Chemicals, Inc.), and 15 mM HEPES pH 7.4 (buffered using Tris), in the presence or absence of thiazide diuretics to initiate ^125I^− uptake. The ^125I^− uptake process lasted 1 h and was stopped by two rapid washes using ice-cold 110 mM MgCl2. Cells lysed using 1% sodium dodecyl sulfate (SDS) were analyzed by scintillation counting.
To calculate the fold change of the half-maximal inhibitory concentration (IC50) between hNCC(WT) and different hNCC variants, individual dose-response curves were normalized first using the smallest mean and the value of the lowest concentration as 0% and 100%, respectively. The normalized data were then fitted using the “EC50 shift” nonlinear regression in GraphPad Prism 10 with the shared EC50Control assigned to be the IC50 of hNCC(WT). The following constraints were used in the EC50 shift analysis. The EC50Control was set to be shared across all curves under analysis and constrained to be greater than 0. The EC50Ratio was constrained to be greater than 0. The bottom, top, and HillSlope were constrained to be 0, 100, and −1, respectively. For Fig. 1f, g and Supplementary Fig. 2d, GraphPad Prism 10 was used to perform curve fitting and IC50 calculation for normalized data using y = 100/(1 + (x/IC50)).

| Compound | increase in IC50 relative to hNCC(WT) | pIC50 | effect of N227A substitution on potency relative to its effect on polythiazide (N227A, polythiazide sensitivities from ref 36) |
| --- | --- | --- | --- |
| NS(=O)(=O)c1cc(C2(O)NC(=O)c3ccccc32)ccc1Cl (centres unmarked) [chlorthalidone] | > 1000 fold | 4.23 | – |
| CC1Cc2ccccc2N1NC(=O)c1ccc(Cl)c(S(N)(=O)=O)c1 (centres unmarked) [indapamide] | over 10,000 fold | 3.21 | over 50 fold |
